Source: patent publication US5840835A, “Inhibitors of peptide binding to MHC class II proteins” (Merck & Co., Inc., priority 1996, dated 1998)
Where two headings read alike, the source gives them in different places.

Target: T1, DR1Dw1 (Homo sapiens, UniProt P01903+P01911, A100R/D57E/F55L/F60I/F76Y/I96L/L162R/M171V/P40L/Q125E/R42F/V115G/Y59C)
T1 construct: these are Drosophila transmembrane DR; made in house
Assay: Inhibition of biotinylated RMBP 90-102 peptide binding to MHC class II DR1 (europium-streptavidin capture assay)
Description: In studies optimizing the assay it was determined that only between 5 to 10% of the DR molecules are capable of binding added peptide. Therefore, the effective concentration of DR1Dw1 and DR4Dw4 was approximately 0.125 and 1.0 nM, respectively. […] The DR-peptide complexes (50 μL) are transferred to wells of a 96-well EIA plate precoated with LB3.1, the monoclonal antibody which recognizes the DR alleles of MHC Class II, and blocked with PBS with fetal calf serum (FCS). An additional 50 μL of 50 mM Tris, pH 7.0, containing 0.75% octyl glucoside is added to each well and the mixture incubated overnight at 4° C. Excess peptide is removed by washing with PBS containing 0.05% Tween 20 (Polyoxyethylene sorbitan monolaurate) and 0.01% NaN3. Europium-labeled streptavidin (Wallac Inc.) is added and incubated overnight. After washing, complexes are measured by the addition of Enhance™ buffer, the tradename for 0.1M acetate phthalate buffer, pH 3.2, containing 0.1% Triton X-100, tradename for polyoxyethylene ethers and other surface active compounds of Union Carbide Chemicals and Plastics Co., Inc. (particularly, a non-ionic surfactant for recovery of membrane components under non-denaturing conditions) 15 μM 2-naphthoyltrifluoroacetone, and 50 μM tri-N-octylphosphine oxide, which buffer releases the chelated europium from streptavidin and forms a highly fluorescent micellar solution. The resultant fluorescence is measured using a fluorescent plate reader (e.g., DELPHIA, Wallac, Inc.). The data are analyzed using a four-parameter logistical curve […] program (e.g., SigmaPlot) that calculates the concentration of biotinylated peptide giving a half-maximal signal (ED50).
The inhibition assay format is identical to the procedure described above with the exception that the unlabeled antagonist is serially diluted and incubated with constant concentrations of biotinylated RMBP 90-102 (0.3 nM for DR1Dw1 or 0.9 nM for DR4Dw4) and the MHC class II proteins. The concentration of unlabeled compound that prevents 50% of the labeled peptide from binding is the IC50 value. The concentration of the biotinylated RMBP 90-102 in each assay is experimentally determined to be […] one-sixth of its measured ED50 to assure the inhibition was primarily measuring the binding characteristics of the competitor.
In particular, a protocol for carrying out the inhibition assay is given below.
Preparation of antibody plate
Add 115 μL of 5 μg/mL LB3.1 in 50 mM Tris HCl pH 9.6/azide to each well of a Costar EIA plate. Incubate the plate overnight at 4° C.
Wash the plate 4 times with water/0.05% Tween-20/azide. Add 200 μL of PBS/5% FCS/azide for 1 hour at 4° C. to block the plate. The plate may be held at this point for later use or used immediately.
Flip out the block. It is not necessary to wash the plate. At 50 μL of load buffer (50 mM Tris HCl, pH 8.0 0.75% octylglucoside). Add to this volume 50 μL of the reaction mix from day 2, step 3 below.
Preparation of reaction mixture
(1) Add the following to a polypropylene round bottom 96-well plate such as a Costar #3794:
(A) Diluent (Ca Mg free PBS adjusted to pH 6.5 with 0.1M KH2 PO4 /0.75% octylglucoside/azide)0.81 μL
(B) Competitor at 16.6 times the final concentration in diluent or diluent alone 0.9 μL
(C) Biotinylated rat myelin basic protein (BRMBP) 90-102; 1.5 nM for DR1 or 4.5 nM for DR4 (These are 5×stocks of final concentrations of 0.3 nM/DR1 or 0.9 nM/DR4) 30 μL
(D) 6.25 nM DR1Dw1 or 50 nM DR4Dw4 (these are Drosophila transmembrane DR) (This is a 5×stock of the final concentration of 1.25 or 10 nM.) 30 μL Add the DR last and mix well at this time 150 μL
(2) Incubate at 37° C. for 20 min and 5 hours.
(3) Add 50 μL of this reaction mixture to one well of the blocked antibody plate from day 2 above.
(4) Incubate overnight at 4° C. to capture the DR-peptide complexes.
(5) Wash 4× with H2 O/0.05% Tween-20/azide […]

[1] = 20 min incubation at 37° C., 0.3 nM biotinylated RMBP 90-102, 1.25 nM DR1Dw1, pH 6.5, read-out: IC50 /nM @ 20 min
[2] = 5 hours incubation at 37° C., 0.3 nM biotinylated RMBP 90-102, 1.25 nM DR1Dw1, pH 6.5, read-out: IC50 /nM @ 5 Hrs

Substance | IC50 [1] | IC50 [2]
EtOCO-(L)Cha (L)Lys Nva.psi.[(E,CH=CH]Leu-NH2 TFA SALT [Example 5] | 21 nM | 142 nM
N-(3-CYCLOHEXYLPROPYL)-(L)(ε-NICOTINOYL)Lys Nva.psi.[E,CH=CH]Nle-NH2 TFA SALT [Example 7] | 409 nM | 2280 nM
α-(3-CYCLOHEXYLPROPYL)-(L)(3-PYRIDYL)Ala Nva.psi.[(E)CH=CH]Leu-NH2 TFA SALT [Example 9] | 2520 nM | 16600 nM

More lines, in order of falling IC50 [1], values ahead:

IC50 [1] | IC50 [2] | Substance
1050 nM | 5600 nM | α-(3-CYCLOHEXYLPROPYL)-(L)(ε-NICOTINOYL)Lys Nva.psi.[(E)CH=CH]Leu-NH2 TFA SALT [Example 8]
616 nM | – | EtOCO-(L)Cha (L)Lys Nva.psi.[trans,cPr]Nle-NH2 TFA SALT [Example 6]
37 nM | 194 nM | EtOCO--(L)Cha(L)Lys Nva.psi.[E,CH=CH]Nle-NH2 TFA [Example 4]
